Earlier results, collected in US5231002A, “Synthetic SCM-active cancer recognition peptides” (priority 1990, dated 1993).

Key:
[1] = test system: lymphocytes from multiple sclerosis; settings: lymphocytes from multiple sclerosis patients
[2] = test system: potentially SCM-responding lymphocytes from donors with malignant diseases

For CaBP, the “response in the SCM test (in words)” value [1] is listed as “do not respond”, the “effectiveness as cancer-associated antigen in the SCM test” value ([2]; known cancer-associated antigens) is listed as “effective in the SCM test” and the “time until response of lymphocytes is lost after surgical removal of malignancy” value ([2]; malignancies of breast or colon surgically removed) is listed as at most 24 h.
